The values that follow come from the NIST ThermoML archive (doi:10.1021/je400255c).

± gives the expanded uncertainty stated by the source.

The conditions of series [1]: DTA.
Series [2] in a line: Molar enthalpy of transition or fusion. The settings on record: DSC.

In the case of `O=C[O-].[K+]` [potassium formate], in series [1] (Crystal 1), the Normal melting temperature came out at 168.70 ± 1.5 °C. The Triple point temperature in series [1] (Crystal 2) is given as 412.65 ± 1 K. Moreover, the “Molar enthalpy of transition or fusion” value was 2.76 ± 0.0478 kcal/mol in series [2] (Crystal 1) and 0.153 ± 0.00239 kcal/mol in series [2] (Crystal 2).
